Values joined by “and” are separate entries in the source; they are usually repeats but may differ in a detail not shown here. Equal values may be shown once.
T1: sRANKL (Rattus norvegicus, UniProt Q9ESE2, D175N)
T1 construct: (1) sRANKL (rat 159-318 aa); His6-sumo (N, cleaved yes); made in house; host or cells: Escherichia coli BL21 (DE3)
T1 sequence (Q9ESE2 159-318 D175N): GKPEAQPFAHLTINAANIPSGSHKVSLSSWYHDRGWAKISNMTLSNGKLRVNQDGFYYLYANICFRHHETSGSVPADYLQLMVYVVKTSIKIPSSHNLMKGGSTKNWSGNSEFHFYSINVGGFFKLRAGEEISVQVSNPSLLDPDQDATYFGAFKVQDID

T2: recombinant RANK (mouse extracellular RANK fragment, residues 26-210) (mouse, UniProt O35305 26-210)
T2 construct: RANK (TNFRSF11A), mouse, extracellular fragment, residues 26-210, cloned into pET28a between Nde I and Xho I; In the functional rows the RANK that was present is the endogenous receptor on mouse bone marrow cells; also called soluble RANK
T2 sequence (looked up): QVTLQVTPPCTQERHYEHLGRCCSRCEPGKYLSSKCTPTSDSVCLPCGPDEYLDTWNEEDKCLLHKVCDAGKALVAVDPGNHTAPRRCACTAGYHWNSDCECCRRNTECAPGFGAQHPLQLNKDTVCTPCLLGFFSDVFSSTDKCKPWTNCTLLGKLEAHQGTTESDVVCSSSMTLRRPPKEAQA

B1: GST tag recombinant rat sRANKL (GST-sRANKL) (ligand, UniProt Q9ESE2 160-318, looked up)
chain: KPEAQPFAHLTINAADIPSGSHKVSLSSWYHDRGWAKISNMTLSNGKLRVNQDGFYYLYANICFRHHETSGSVPADYLQLMVYVVKTSIKIPSSHNLMKGGSTKNWSGNSEFHFYSINVGGFFKLRAGEEISVQVSNPSLLDPDQDATYFGAFKVQDID
notes: also called soluble RANKL; source: E. coli BL21 (DE3), purified (glutathione sepharose, Superdex 200 Increase)
B2: label-free rat sRANKL (wild type) (ligand, UniProt Q9ESE2 160-318, looked up)
chain: B1 chain
notes: RANKL, rat, soluble form sRANKL; also called WT sRANKL; soluble RANKL; source: E. coli BL21 (DE3), purified (Ni-NTA, released by Ulp1, HiLoad Superdex 200); not shown: His6, N-terminal, cleaved; SUMO, N-terminal, cleaved

Experiments:
[1] = tested on: sRANKL induced osteoclast differentiation; assay: In vitro anti-osteoclastogenesis activity determination (TRAP staining); format: cell-based, mouse; design: key to inhibition of osteoclastogenesis, dose-response (fig. S2a): % inhibition = 100 − (treated−unstimulated)/(untreated−unstimulated)×100; conditions: for inhibition of osteoclastogenesis, dose-response (fig. S2a): three replicate columns; for IC50: BMMs, M-CSF + 100 ng/mL sRANKL, 5 days, TRAP staining, read-out: OC IC50 (anti-osteoclastogenesis activity)
In short: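 Mouse bone-marrow macrophages in 10 ng/mL M-CSF were stimulated with 100 ng/mL sRANKL plus compound at 9 concentrations, refreshed every 2 days, triplicate wells. After 5 days TRAP-stained osteoclasts were counted; inhibition normalised to untreated and unstimulated controls, IC50 by nonlinear regression.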

RAW264.7 cells = assay: In vitro cytotoxicity assay (MTT); format: cell-based, mouse; conditions: RAW264.7, MTT
Procedure: MTT assay was used to determine cell viability. RAW264.7 cells in the logarithmic growth phase were cultured in 96-well plates with 6 × 10^3 cells in each well and incubated for 24 h. The surviving cells were then determined by MTT method. […] Cell growth inhibition ratio was calculated as follows: Cellgrowthinhibitionratio%=ODvehicle−ODtreaed/ODvehicle×100%
Cell cytotoxicity CC50 value were conducted by using Nonlinear regression (curve fit) analytic procedure in GraphPad Prism 8.

sRANKL = biological target: T1, sRANKL; assay: Surface plasmon resonance (SPR) assay; format: binding; conditions: immobilized sRANKL, 25 °C
Procedure: A ProteOn XPR36TM SPR instrument (BioRad Hercules, CA) was used for carrying out SPR assays. sRANKL protein in PBS buffer, pH 7.4, was diluted to 20 nM in 10 mM sodium acetate buffer, pH 5.5 and immobilized in parallelflow channels of a the EDAC/Sulfo-NHS activated surface of a GLH biosensor chip (Bio-Rad) with an amine coupling kit (Bio-Rad). The surface was blocked with 1 M ethanolamine. The final immobilization level for sRANKL was approximately 14,000 RU. A blank immobilization channel in the same GLH biosensor chip was also activated with EDAC/Sulfo-NHS and blocked with 1 M ethanolamine to use as a reference.
Biosensor binding experiments were conducted in filtered and degassed running buffer (PBS containing 0.005% Tween-20, pH 7.4) at 25 °C. Compounds was dissolved in 100% DMSO in appropriate different series concentrations of stock solutions. Before detecting, compounds were diluted in six or five concentrations with running buffer and ensured that the content of DMSO contained in each detected concentration was consistent. Compounds in different concentrations were injected simultaneously at a flow rate at […] for 180 s and 120 s for the association phase, followed by 180 s for the disassociation. Following the compound injection, the chip surface was regenerated with 40 s pulses of 0.85% H3PO4 and running buffer.
ProtedOn Manager 2.0. was used for data analysis. Each set of sensorgrams was globally analyzed using the 1:1 Langmuir binding model to obtain the kinetic rate constants (Kon and Koff). Global kinetic rate constants (ka and kd) were derived for each reaction, and the equilibrium dissociation constant, KD, was calculated using the equation KD = kd/ka.

[2] = biological target: T2, recombinant RANK (mouse extracellular …); assay: pull-down; 120 ug GST-sRANKL on the resin in PBS with 1% BSA, room temperature; compounds (50 uM) or 0.8% DMSO control for 30 min, then 25 ug RANK for 20 min; SDS-PAGE, Coomassie blue; conditions: both partners purified
[3] = biological target: the molecule itself; assay: cross-linking; cross-link assay of sRANKL with S3-15; methods not shown

| Molecule | inhibition of osteoclastogenesis, dose-response (fig. S2a) ([1]; conc. 0.0023464 μM) | inhibition of osteoclastogenesis, dose-response (fig. S2a) ([1]; conc. 0.00774313 μM) | inhibition of osteoclastogenesis, dose-response (fig. S2a) ([1]; conc. 0.0255523 μM) | inhibition of osteoclastogenesis, dose-response (fig. S2a) ([1]; conc. 0.0843226 μM) | inhibition of osteoclastogenesis, dose-response (fig. S2a) ([1]; conc. 0.278265 μM) | inhibition of osteoclastogenesis, dose-response (fig. S2a) ([1]; conc. 0.918274 μM) | inhibition of osteoclastogenesis, dose-response (fig. S2a) ([1]; conc. 3.0303 μM) | inhibition of osteoclastogenesis, dose-response (fig. S2a) ([1]; conc. 10 μM) | inhibition of osteoclastogenesis, dose-response (fig. S2a) ([1]; conc. 33 μM) | CC50 (RAW264.7 cells) | Kd (sRANKL) | IC50 [1] | binding result [2] | stoichiometry N [3] |
| --- | --- | --- | --- | --- | --- | --- | --- | --- | --- | --- | --- | --- | --- | --- |
| CC(=O)C(=NNc1ccccc1C(=O)O)C(=O)Nc1nccs1 [S3-09] | -0.7659 (2×) and 2.516 | 0.2188 and -0.1094 and 1.86 | 6.455 and 3.501 and 2.845 | 10.3939 and 2.845 and 7.44 | 45.186 and 26.8053 and 32.3851 | 57.9869 (2×) and 48.7965 | 69.1466 and 68.8184 and 61.9256 | 80.6346 and 77.0241 and 79.6499 | 100 | > 100 µM | 33.7 µM |  |  |  |
| CCOC(=O)c1sc(NC(=O)C(=NNc2cccc(C(=O)O)c2)C(C)=O)nc1C [S3-03] | 4.313 and 4.012 and -1.404 | 4.012 and 1.304 and -0.5015 | 11.5346 and 24.4734 and 19.659 | 33.8014 and 30.1906 and 37.1113 | 47.6429 and 50.0502 and 47.342 | 51.8556 and 56.9709 and 59.3781 | 77.4323 and 79.5386 and 69.007 | 99.0973 and 98.7964 (2×) | 100 | 33.9 µM | 33.7 µM | 0.36 µM |  |  |
| CCOC(=O)c1sc(NC(=O)C(=NNc2ccc(C(=O)O)cc2)C(C)=O)nc1C [S3-02] | 0.3058 and -2.446 and -0.3058 | 12.2324 and 9.48 and 14.6789 | 19.5719 and 20.7951 and 20.4893 | 19.5719 and 21.7125 and 20.1835 | 22.9358 and 29.3578 (2×) | 32.1101 and 33.9449 and 35.474 | 59.0214 and 60.5505 and 61.1621 | 81.6514 and 80.7339 and 87.7676 | 100 | 41.9 µM | 38 µM | 1.24 µM and > 1 µM |  |  |
| CCOC(=O)c1sc(NC(=O)C(=NNc2ccccc2O)C(C)=O)nc1C [S3-06] | -2.117 and 4.235 and 7.166 | 2.28 and -2.606 and 3.746 | 1.792 and 3.746 and -0.1629 | 4.723 and 7.166 and -1.14 | 27.1987 and 24.2671 and 26.2215 | 39.4137 and 37.4593 and 42.3453 | 68.7296 and 60.9121 and 64.3322 | 81.9218 (2×) and 82.899 | 100 | 202 µM |  | 1.4 µM |  |  |
| CC(=O)C(=NNc1ccccc1C(=O)O)C(=O)Nc1nc(C)c(C(=O)O)s1 [S3-01] | 5.532 (2×) and 2.66 | 13.1915 and 15.7447 and 16.7021 | 9.043 and 12.234 and 13.5106 | 12.234 and 16.7021 and 15.1064 | 42.234 and 40.3192 and 42.5532 | 61.7021 and 57.234 and 62.3404 | 74.1489 and 77.0213 and 79.8936 | 99.3617 (2×) and 99.0426 | 100 | 62.3 µM | 211 µM |  |  |  |
| CC(=O)C(=NNc1ccccc1C(=O)O)C(=O)Nc1ccc(C#N)cn1 [S3-15-1] | 2.8169 and -0.3521 and -2.465 | 2.113 and 9.859 and 10.5634 | 19.3662 and 16.1972 and 17.6056 | 28.169 and 26.7606 and 24.2958 | 28.169 (2×) and 24.2958 | 45.0704 and 44.7183 (2×) | 59.8591 and 57.7465 and 60.9155 | 77.4648 and 79.5775 and 76.0563 | 100 | 81.2 µM |  | 1.05 µM |  |  |
| CCOC(=O)c1sc(NC(=O)C(=NNc2ccccc2C(=O)O)C(=O)OC(C)C)nc1C [S3-22] | 1.224 and 0.8568 and 0.4896 | 0.8568 and 1.958 and 3.427 | 4.896 and 10.0367 and 5.263 | 26.1934 and 25.0918 and 21.4198 | 44.1861 and 41.6157 and 42.7173 | 58.8739 and 65.1163 and 60.7099 | 88.2497 and 86.7809 and 89.3513 | 100 | 100 | 81.2 µM |  | 0.4 µM |  |  |
| B1 |  |  |  |  |  |  |  |  |  |  |  |  | binds |  |
| B2 |  |  |  |  |  |  |  |  |  |  |  |  |  | 3 |

Reference: publication PMC9468151, “Identification of a binding site on soluble RANKL that can be targeted to inhibit soluble RANK-RANKL interactions and treat osteoporosis” (Nature Communications, 2022)
